COC(=O)c1c(Cl)nn(C)c1S(=O)(=O)NC(=O)Nc1nc(OC)cc(OC)n1
solubility (mole fraction)
Conditions | 278.15 K | 283.15 K | 288.15 K | 293.15 K | 298.15 K | 303.15 K | 308.15 K | 313.15 K | 318.15 K | 323.15 K
in DMF | 0.000768 | 0.000905 | 0.00105 | 0.00123 | 0.00142 | 0.0016 | 0.00182 | 0.00204 | 0.00227 | 0.00254
in ethanol | 3.56e-05 | 4.18e-05 | 4.87e-05 | 5.64e-05 | 6.48e-05 | 7.29e-05 | 8.22e-05 | 9.25e-05 | 0.000103 | 0.000116
in isopropanol | 3.3e-06 | 3.57e-06 | 3.85e-06 | 4.17e-06 | 4.51e-06 | 4.93e-06 | 5.33e-06 | 5.71e-06 | 6.19e-06 | 6.64e-06
in water | 3.24e-07 | 3.38e-07 | 3.51e-07 | 3.66e-07 | 3.81e-07 | 3.96e-07 | 4.11e-07 | 4.26e-07 | 4.44e-07 | 4.62e-07

— BigSolDB 2.1
